Legend:
[1] = system: 'Tegan Blue' Japanese plum fruit; assay: climacteric ethylene level in 'Tegan Blue' plum fruit after fumigation; format: in vivo; details: for level of climacteric ethylene, suppressed, in comparison to the solely ethylene treated fruit: 'Tegan Blue' plum, ethylene only 4.73 μmol kg^-1 h^-1
[2] = system: 'Tegan Blue' Japanese plum fruit; assay: climacteric respiration (CO2 production) in 'Tegan Blue' plum fruit; format: in vivo; details: ethylene only 0.72 mmol CO2 kg^-1 h^-1
WX73 wax flower = assay: flower/bud abscission in WX73 wax flower; format: in vivo, Wax flower (Chamelaucium Desf.)
Procedure: (§1) To evaluate the effects of BC and NC on flower abscission, flowering stems of Wax flower (Chamelaucium Desf.) (WX17, WX73 and WX107) were collected from mature bushes grown at Department of Agriculture and Food Western Australia (DAFWA), Perth (31° 58′ 55″ S/115° 51′ 47″ E). Collected stems were immediately placed upright in buckets with water and recut at 20-25 cm in length (from the cut end to the most extreme opened-flowers). The flower stalks were treated similarly as the fruits with BC (0-100 nLL^−1) or NC (0-100 nLL^−1) and ethylene. The experiments were laid out by following CRD design, having five replications for each treatment and five stalks in each replication. During the treatment period, the flower stalks were placed in small plastic bottles with distilled water. A cone made of nylon mesh was placed at the base of the stalks to check the number of abscised flowers. […]
(§2) The experimental data were analysed following one-way analysis of variance (ANOVA) by using Genstat 13 (release 13.1; Lawes Agricultural Trust, Rothamsted Experimental Station, Harpenden, UK). The effects of various treatments and their interactions were assessed and least significant differences (Fisher's LSD) were calculated by F test at 5% level of significance.

[3] = system: 'Arctic Pride' nectarine fruit; assay: climacteric ethylene level in 'Arctic Pride' nectarine fruit after fumigation; format: in vivo; details: BC 50 nLL^-1 + ethylene, ethylene only 0.414 μmol kg^-1 h^-1
WX17 wax flower = assay: flower/bud abscission in WX17 wax flower; format: in vivo, Wax flower (Chamelaucium Desf.); details: BC 100 nLL^-1 fumigation followed by ethylene exposure (10 μLL^-1)
Procedure: as §1, §2

[4] = system: 'Arctic Pride' nectarine fruit; assay: climacteric respiration (CO2 production) in 'Arctic Pride' nectarine fruit; format: in vivo; details: ethylene only 0.31 mmol CO2 kg^-1 h^-1
solubility in water = format: physicochemical
[5] = stability at room temperature; format: physicochemical

Which “level of climacteric ethylene, suppressed, in comparison to the solely ethylene treated fruit” value ([1]; 1000 nLL^-1 1-MCP fumigation 18 hr + ethylene (10 μL L^-1, 24 hr)) does the source give for `CC1=CC1` [1-MCP, 1-Methylcyclopropene, reference compound] here?
Its value is 0.70 fold.

What about the “climacteric respiration, suppressed, than the solely ethylene treated fruit” value ([2]; 1-MCP 1000 μLL^-1 + ethylene) of the same molecule?
Its value is 0.77 fold.

Which results are given for `c1ccc2c(c1)C2` [BC, benzocyclopropene]?
rate of flower/bud abscission (WX73 wax flower; 50 nL L^-1 BC followed by ethylene treatment): 22.43%; rate of flower/bud abscission (WX73 wax flower; 100 nL L^-1 BC followed by ethylene treatment): 28.40%; level of climacteric ethylene, suppressed, in comparison to the solely ethylene treated fruit ([1]; 100 nLL^-1 BC fumigation 18 hr + ethylene (10 μL L^-1, 24 hr)): 0.80 fold; effect on climacteric ethylene and respiration compared with 1-MCP (1000 nL L^-1) ([1]; BC 100 nL L^-1 versus 1-MCP 1000 nL L^-1, 'Tegan Blue' and 'Fortune' plum, 'Arctic Pride' nectarine): non-significant differences; climacteric respiration, suppressed, than the solely ethylene treated fruit ([2]; BC 100 nLL^-1 + ethylene): 0.83 fold; levels of ethylene, suppressed, than the solely ethylene treated fruit [3]: 0.63 fold; rate of flower/bud abscission (WX17 wax flower): 6.05%; suppression of respiration climacteric in comparison to the solely ethylene treated fruit ([4]; BC 50 nLL^-1 + ethylene): 0.77 fold; suppression of respiration climacteric in comparison to the solely ethylene treated fruit ([4]; BC 50 nLL^-1 without ethylene): 0.71 fold; solubility in water (solubility in water): only partially soluble in water; stability [5]: stable at room temperature for several months

From patent publication US20190359547A1, “METHOD OF RETARDING AN ETHYLENE RESPONSE” (CURTIN UNIVERSITY OF TECHNOLOGY, priority 2016, published 2019)
